Data: US11584712B2, “Alkylamine-substituted perthiocarbamates as dual precursors to hydropersulfide and carbonyl sulfide” (The Johns Hopkins University, priority 2020, dated 2023)

Experiments:
[1] = RSSH generation and quantification of cyclic ureas by UPLC-MS with HPE-IAM or NEM trap; type: physicochemical
Protocol: Precursor 1a was dissolved in DMSO to afford a 1 mM stock solution. Similarly, HPE-IAM and N-ethyl maleimide (NEM) were independently dissolved in DMSO to obtain 50 mM stock solutions. To a 20 mL scintillation vial, HPE-IAM or NEM (30 μL, 50 mM) was added in pH 7.4 ammonium bicarbonate buffer (2.94 mL) containing the DTPA (100 μM). The resulting solution was pre-incubated at 37° C. for 10 min. Precursor 1a (30 μL, 1 mM) was then added into the mixture and incubated for 15 min at 37° C. An aliquot of the reaction mixture (500 μL) was withdrawn, 4-hydroxyphenylacetamide (10 μM) was added as internal standard, and analyzed using UPLC-MS as follows: Mobile phase: 0-1 min 90% water+0% ACN+10% formic acid (0.1%); 1-7.5 min gradient up to 10% water+80% ACN+10% formic acid (0.1%); 7.5-8.4 min 10% water+80% ACN+10% formic acid (0.1%); 8.4-8.5 min gradient up to 90% water+0% ACN+10% formic acid (0.1%), 8.5-10 min 90% water+0% ACN+10% formic acid (0.1%). Flow rate=0.3 mL/min. […] These studies were conducted at least in triplicate and representative spectra are presented.
Precursors 7a-d (10 μM) were independently incubated with HPE-IAM (500 μM) in pH 7.4 ammonium bicarbonate buffer (50 mM) containing DTPA (100 μM) at 37° C. The reaction mixture (500 μL) was analyzed using UPLC-MS. To quantify 2a-d generated from these precursors, a calibration curve of each individual cyclic urea with known concentrations was independently generated.
Precursor 1a was dissolved in DMSO to afford a 1 mM stock solution. Similarly, HPE-IAM was dissolved in DMSO to obtain a 50 mM stock solution. To a 20 mL scintillation vial, HPE-IAM (30 μL, 50 mM) was added in pH 7.4 ammonium bicarbonate buffer (2.94 mL) containing the DTPA (100 μM). The resulting solution was pre-incubated at 37° C. for 10 min. Precursor 1a (30 μL, 1 mM) was then added into the mixture and incubated for 15 min at 37° C. An aliquot of the reaction mixture (500 μL) was withdrawn and analyzed using UPLC-MS as follows: Mobile phase: 0-1 min 90% water+0% ACN+10% formic acid (0.1%); 1-7.5 min gradient up to 10% water+80% ACN+10% formic acid (0.1%); 7.5-8.4 min 10% water+80% ACN+10% formic acid (0.1%); 8.4-8.5 min gradient up to 90% water+0% ACN+10% formic acid (0.1%), 8.5-10 min 90% water+0% ACN+10% formic acid (0.1%). Flow rate=0.3 mL/min. The mass signals for product of RSSH trapping with HPE-IAM were obtained via deconvolution using MassLynx 4.1 software. These studies were conducted at least in triplicate and representative spectra are presented.
Precursors 7a-d (10 μM) were independently incubated with HPE-IAM (500 μM) in pH 7.4 ammonium bicarbonate buffer (50 mM) containing DTPA (100 μM) at 37° C. This reaction mixture was analyzed by UPLC-MS as follows: Mobile phase: 0-1 min 90% water+0% ACN+10% formic acid (0.1%); 1-7.5 min gradient up to 10% water+80% ACN+10% formic acid (0.1%); 7.5-8.4 min 10% water+80% ACN+10% formic acid (0.1%); 8.4-8.5 min gradient up to 90% water+0% ACN+10% formic acid (0.1%), 8.5-10 min 90% water+0% ACN+10% formic acid (0.1%). Flow rate=0.3 mL/min. To quantify 2a-d generated from these precursors, a calibration curve of each individual cyclic urea with known concentrations was independently generated.

[2] = Kinetics of RSSH release from precursors monitored by HPLC (HPE-IAM trapping); type: physicochemical; settings: precursor 100 μM, HPE-IAM 5 mM, pH 7.4 phosphate buffer with DTPA, 37° C.
Protocol: (§1) Precursors 7a-d were dissolved in DMSO to afford 10 mM stock solutions. HPE-IAM was dissolved in DMSO to obtain a 100 mM stock solution. […] This solution was pre-incubated for 10 min at 37° C. and then precursor 7a-d (30 μL, 10 mM) were independently added into the mixture. The resulting solution was incubated at 37° C. At different time points, an aliquot of 200 μL was taken and quenched with 200 μL […] solution. These samples were stored at 0° C. until HPLC analysis was performed. The sample (20 μL) was injected into a high-performance liquid chromatography (HPLC) equipped with Phenomenex C-18 reverse phase column (250 mm×4.6 mm, 5 μm). HPLC Method: mobile phase A (H2O) and mobile phase B (ACN), flow rate: 1 mL/min, run time: 20 min, the gradient elution method: 10% to 40% B from 0 to 12 min, 40% to 80% B from 12 to 20 min. The elution was monitored by a UV detector at 275 nm. A calibration curve was generated using RSS-HPE-AM 9 to quantify RSSH generation from 7a-d.
as §1, with “by a variable UV detector” for “by a UV detector”

[3] = RSSH generation in the presence of N-acetyl cysteine by UPLC-MS; type: physicochemical; settings: precursor 100 μM, NAC 500 μM, pH 7.4 ammonium bicarbonate buffer with DTPA, 37° C.
Protocol: […] The resulting mixture was incubated at 37° C. An aliquot (200 μL) of reaction mixture was withdrawn at specified time points and quenched with 1% formic acid (200 μL). 3-Amino-benzoic acid (50 μM) was added to each sample as internal standard prior to UPLC-MS analysis. To quantify 2a-d generated from these precursors, a calibration curve for each individual cyclic urea with known concentrations was independently generated.
[…] The resulting mixture was incubated at 37° C. An aliquot ([…]) of reaction mixture was withdrawn at specified time points and quenched with 1% formic acid (200 μL). 3-amino-benzoic acid (50 μM) was added to each sample as internal standard prior to UPLC-MS analysis. To quantify 2a-d generated from these precursors, the calibration curve of each individual cyclic urea with known concentrations was independently generated.

[4] = COS release using membrane inlet mass spectrometry (MIMS); type: physicochemical; settings: precursor 50 μM, NAC 0.25 mM (5 equiv.), pH 7.4 phosphate buffer saline with DTPA, 37° C.
Protocol: (§2) COS was analyzed using a Hiden HPR-40 MIMS system with a sample cell and membrane probe that have been optimized to detect gases dissolved in aqueous solution as described previously. Cline et al., 2011. A stock solution of N-acetyl-cysteine (25 mM) was prepared in DI water. RSSH precursor stock solutions (5 mM) were prepared in DMSO. These solutions were degassed by purging with nitrogen for 10 min before COS release analysis. Typically, 20 mL phosphate buffer solution (10 mM) was added to the sample cell, degassed and purged with a continuous flow of argon for 15 min. N-acetyl cysteine (200 μL, 25 mM) and RSSH precursor (200 μL, 5 mM) were then injected using a gas tight syringe and ion current at m/z 60 (COS^+) were collected for 2 h (source pressure was approximately 1×10^−7 to 5×10^−7 Torr).
as §2, with “(COS*)” for “(COS^+)”

H9c2 cells = assay: Cytotoxicity study with SYTOX Green nucleic acid stain; type: cell-based, rat; settings: 24 h exposure, 0-150 μM
Protocol: H9c2(2-1) embryonic rat heart myoblasts were obtained from the American Type Culture Collection. Cells were grown in Dulbecco's […] (DMEM), supplemented with fetal bovine serum (FBS) 10%, penicillin 100 U/mL and streptomycin 100 μg/mL. They were propagated in T75-flasks, split before reaching 70-80% confluence (usually every day or every second day), and used within 11 passages. Cells were passaged to tissue culture treated 96-well microtiter plates at the specified density in 180 μL volumes and incubated for 24 h.
Cells were seeded at a density of 1×10^4 cells/well. […] Then, 100 μL of media containing 3 μM SYTOX™ Green nucleic acid stain (Invitrogen) was added and the cells were incubated for 2 h before fluorescence readings were obtained at 485Ex/538Em (Step 1). Finally, an additional 100 μL of media containing 3 μM SYTOX™ and 0.2% Triton X-100 was added in order to permeabilize all cells and incubated for 1 h before fluorescence values measured (Step 2). The relative % cells surviving was calculated as a 100% minus the ratio of the fluorescence value of Step 1 over Step 2 (% cells surviving=100%−(FL538 (Step 1)/FL538(Step 2)).
Cells were seeded at a density of 1×10^4 cells/well. […] The relative % cells surviving was calculated as a 100% minus the ratio of the fluorescence value of Step 1 over Step 2 (% cells surviving=100%−(FL538 (Step 1)/FL538(Step 2)).

Compound: CNCCN(C)C(=O)SSCC(NC(C)=O)C(=O)OC (stereo not shown) [Precursor 1a, 2-(((2-Acetamido-3-methoxy-3-oxopropyl)disulfannecarbonyl)(methyl)amino)-N-methylethan-1-aminium]
- yield of byproduct 2a ([1]; NEM 50 equiv., pH 7.4 buffer): 74%
- yield of cyclic urea byproduct ([1]; precursor 10 μM, HPE-IAM 500 μM (50 equiv.), pH 7.4 ammonium bicarbonate buffer, 37° C.): 52%
- byproduct 2a formation ([1]; precursor 10 μM, NEM 500 μM, pH 7.4 ammonium bicarbonate buffer, 37° C., 15 min): 7.4 ± 0.2 µM

Compound: COC(=O)C(NC(C)=O)C(C)(C)SSC(=O)N(C)CCCN (stereo not shown) [Precursor 7d, 3-(((3-acetamido-4-methoxy-2-methyl-4-oxobutan-2-yl)disulfannecarbonyl)(methyl)amino)propan-1-aminium]
- Hydropersulfide Yield (%) [2]: 82 ± 1%
- Byproduct % (yield of cyclic urea 2a-d) [3]: 5.9 ± 0.4%
- COS release (m/z=60 signal) [4]: produce mainly COS

Compound: CN1CCNC1=O [byproduct 2b, 1-methylimidazolidin-2-one]
- cytotoxicity toward H9c2 cells (H9c2 cells): no toxicity
